Data taken from article PMC2713172 (Biochemistry, 2008).
Like-named read-outs stand apart in the source and are kept apart here.

Key:
[1] = target: T1, CYP2C9 F476L mutant (Homo sapiens, UniProt P11712, F476L); test: biochemical
[2] = target: T2, CYP2C9 F114W/F476W double mutant (Homo sapiens, UniProt P11712, F114W/F476W)
[3] = target: T3, wild-type CYP2C9 (Homo sapiens, UniProt P11712)
[4] = target: T1, CYP2C9 F476L mutant; settings: F476L
[5] = target: T4, CYP2C9 F476W mutant (Homo sapiens, UniProt P11712, F476W)
[6] = target: T3, wild-type CYP2C9; settings: WT; for T1, 2C9 + CO: dithionite/CO
[7] = target: T5, CYP2C9 F114L/F476L double mutant (Homo sapiens, UniProt P11712, F114L/F476L)
[8] = target: T6, CYP2C9 F114W mutant (Homo sapiens, UniProt P11712, F114W); settings: F114W
[9] = target: T5, CYP2C9 F114L/F476L double mutant; test: biochemical
[10] = target: T4, CYP2C9 F476W mutant; test: 1H-NMR T1 relaxation, distances of ligand protons from the heme iron
[11] = target: T2, CYP2C9 F114W/F476W double mutant; test: in vitro; settings: pH 7.4
[12] = target: T4, CYP2C9 F476W mutant; test: in vitro; settings: pH 7.4
[13] = target: T1, CYP2C9 F476L mutant
[14] = target: T3, wild-type CYP2C9; test: biochemical
[15] = target: T4, CYP2C9 F476W mutant; test: biochemical
[16] = target: T7, CYP2C9 F114L mutant (Homo sapiens, UniProt P11712, F114L)
[17] = target: T4, CYP2C9 F476W mutant; remark: listed apart in the source
[18] = target: T7, CYP2C9 F114L mutant; settings: F114L
[19] = target: T8, CYP2C9 F100L mutant (Homo sapiens, UniProt P11712, F100L)
[20] = target: T5, CYP2C9 F114L/F476L double mutant; settings: F114L/F476L
[21] = target: T6, CYP2C9 F114W mutant
[22] = target: T2, CYP2C9 F114W/F476W double mutant; settings: F114W/F476W
[23] = target: T8, CYP2C9 F100L mutant; test: in vitro; settings: pH 7.4
[24] = target: T6, CYP2C9 F114W mutant; test: biochemical

`C[C@H](C(=O)O)c1ccc(-c2ccccc2)c(F)c1` [(S)-flurbiprofen] was tested, and the Kd [1] was 9.1 ± 1 µM, the “percent of wild-type kcat/Km” value [2] was 3% and the kcat ([2]; substrate hydroxylation) was 0.0517 ± 0.0013 s⁻¹. It also gave an H2O2/O2 ([3]; WT) of 0.43, an H2O/Metabolite ([3]; WT) of 0.7 and a Metabolite/NADPH ([3]; WT, coupling efficiency) of 0.21. For the same compound, the “coupling of hydroxylation to NADPH consumption” value ([3]; wild-type CYP2C9) was ~ 20%, the “percent of wild-type ΔA/K” value [4] was 23% and the ΔA/K [4] was 1.2 μM^−1 × 10^−3. The “ΔAmax (maximum observed difference 390–420 nm)” value [4] was 11 ± 0.4 ×10^−3, the H2O2/O2 [5] was 0.71 and the H2O/Metabolite [5] was 1.6. For the same compound, the Metabolite/NADPH ([5]; coupling efficiency) was 0.06, the “T1, 2C9” value ([6]; proton H2) was 2.44 (0.10) seconds and the “r, distance of proton from the heme iron” value ([6]; proton H2) was 5.95 (0.11) angstroms. For the same compound, the “T1, 2C9 + CO” value ([6]; proton H2) was 2.79 (0.14) seconds, the “T1, 2C9” value ([6]; proton H4′) was 3.44 (0.26) seconds and the “r, distance of proton from the heme iron” value ([6]; proton H4′) was 6.11 (0.19) angstroms. For the same compound, the “T1, 2C9 + CO” value ([6]; proton H4′) was 4.25 (0.44) seconds, the “T1, 2C9” value ([6]; proton H5) was 2.17 (0.07) seconds and the “r, distance of proton from the heme iron” value ([6]; proton H5) was 6.27 (0.16) angstroms. The “T1, 2C9 + CO” value ([6]; proton H5) was 2.26 (0.10) seconds, the “T1, 2C9” value ([6]; proton H6) was 1.79 (0.05) seconds and the “r, distance of proton from the heme iron” value ([6]; proton H6) was 7.30 (0.19) angstroms. For the same compound, the “T1, 2C9 + CO” value ([6]; proton H6) was 2.04 (0.10) seconds, the “T1, 2C9” value ([6]; protons CH3) was 0.68 (0.01) seconds and the “r, distance of proton from the heme iron” value ([6]; protons CH3) was 7.82 (0.09) angstroms. For the same compound, the “T1, 2C9 + CO” value ([6]; protons CH3) was 0.68 (0.01) seconds, the “T1, 2C9” value ([6]; protons H2′/6′) was 2.38 (0.07) seconds and the “r, distance of proton from the heme iron” value ([6]; protons H2′/6′) was 6.02 (0.37) angstroms. The “T1, 2C9 + CO” value ([6]; protons H2′/6′) was 2.77 (0.07) seconds, the “T1, 2C9” value ([6]; protons H3′/5′) was 2.42 (0.08) seconds and the “r, distance of proton from the heme iron” value ([6]; protons H3′/5′) was 5.82 (0.15) angstroms. The “T1, 2C9 + CO” value ([6]; protons H3′/5′) was 2.70 (0.11) seconds, the “percent of wild-type kcat/Km” value [7] was 3% and the “percent of wild-type ΔA/K” value [8] was 160%. The ΔA/K [8] was 8.5 μM^−1 × 10^−3, the “ΔAmax (maximum observed difference 390–420 nm)” value [8] was 34 ± 0.4 ×10^−3 and the Kd [9] was 9.9 ± 1.3 µM. For the same compound, the “T1, 2C9” value ([10]; proton H2) was 2.56 (0.15) seconds, the “r, distance of proton from the heme iron” value ([10]; proton H2) was 6.58 (0.28) angstroms and the “T1, 2C9 + CO” value ([10]; proton H2, dithionite/CO) was 2.34 (0.14) seconds. For the same compound, the “T1, 2C9” value ([10]; proton H4′) was 2.88 (0.14) seconds, the “r, distance of proton from the heme iron” value ([10]; proton H4′) was 6.40 (0.32) angstroms and the “T1, 2C9 + CO” value ([10]; proton H4′, dithionite/CO) was 2.55 (0.16) seconds. For the same compound, the “T1, 2C9” value ([10]; proton H5) was 2.11 (0.10) seconds, the “r, distance of proton from the heme iron” value ([10]; proton H5) was 6.47 (0.24) angstroms and the “T1, 2C9 + CO” value ([10]; proton H5, dithionite/CO) was 2.24 (0.18) seconds. The “T1, 2C9” value ([10]; proton H6) was 1.78 (0.08) seconds, the “r, distance of proton from the heme iron” value ([10]; proton H6) was 6.79 (0.22) angstroms and the “T1, 2C9 + CO” value ([10]; proton H6, dithionite/CO) was 1.85 (0.08) seconds. The “T1, 2C9” value ([10]; protons CH3) was 0.67 (0.01) seconds, the “r, distance of proton from the heme iron” value ([10]; protons CH3) was 5.62 (0.25) angstroms and the “T1, 2C9 + CO” value ([10]; protons CH3, dithionite/CO) was 0.65 (0.03) seconds. The “T1, 2C9” value ([10]; protons H2′/6′) was 2.38 (0.06) seconds, the “r, distance of proton from the heme iron” value ([10]; protons H2′/6′) was 7.15 (0.13) angstroms and the “T1, 2C9 + CO” value ([10]; protons H2′/6′, dithionite/CO) was 2.54 (0.07) seconds. The “T1, 2C9” value ([10]; protons H3′/5′) was 2.39 (0.08) seconds, the “r, distance of proton from the heme iron” value ([10]; protons H3′/5′) was 6.49 (0.20) angstroms and the “T1, 2C9 + CO” value ([10]; protons H3′/5′, dithionite/CO) was 2.39 (0.16) seconds. The Km at 20 min [11] was 237 ± 11.8 µM, the Km at 20 min [12] was 105 ± 3.9 µM and the “percent of wild-type kcat/Km” value ([13]; F476L) was 29%. For the same compound, the “decrease of the efficiency of metabolism” value ([13]; F476→L mutation vs wild-type) was 70%, the Kd [14] was 3.4 ± 0.4 µM and the Kd [15] was 18.3 ± 1.9 µM. For the same compound, the “percent of wild-type kcat/Km” value [16] was 28%, the “decrease of efficiency of turnover relative to wild-type” value [17] was 20 fold and the “percent of wild-type kcat/Km” value [17] was 5%. The kcat ([17]; substrate hydroxylation) was 0.0267 ± 0.0033 s⁻¹, the “percent of wild-type ΔA/K” value [18] was 46% and the ΔA/K [18] was 2.4 μM^−1 × 10^−3. The “ΔAmax (maximum observed difference 390–420 nm)” value [18] was 10 ± 0.4 ×10^−3, the “percent of wild-type kcat/Km” value [19] was 100% and the kcat ([19]; substrate hydroxylation) was 0.205 ± 0.012 s⁻¹. For the same compound, the “percent of wild-type ΔA/K” value [20] was 8%, the ΔA/K [20] was 0.4 μM^−1 × 10^−3 and the “ΔAmax (maximum observed difference 390–420 nm)” value [20] was 4.4 ± 0.2 ×10^−3. For the same compound, the “percent of wild-type kcat/Km” value [21] was 120%, the kcat ([21]; substrate hydroxylation) was 0.153 ± 0.0067 s⁻¹ and the “percent of wild-type ΔA/K” value [22] was 6%. For the same compound, the ΔA/K [22] was 0.3 μM^−1 × 10^−3, the “ΔAmax (maximum observed difference 390–420 nm)” value [22] was 7.3 ± 0.4 ×10^−3 and the Km at 20 min [23] was 34.8 ± 7 µM. It also gave a Kd [24] of 4 ± 0.2 µM.
